Source: patent publication US20160010142A1, “Compositions and Methods For Analysis of C02 Absorption” (NOVOZYMES NORTH AMERICA, INC., priority 2013, published 2016)

Legend:
carbonic anhydrase [1] = test: Effect of salt on carbonic anhydrase activity, 50 mM bicine/cresol red assay; type: biochemical; conditions: form of the enzyme that precipitates in the absence of salt
Experimental: The measurement of CO2 absorption enhancement by carbonic anhydrase was performed as described in Example 1 except the assay reagent contains 50 mM bicine at pH 8.65+/−0.05. This embodiment of the assay reagent delays the assay response relative to Example 1. Such a delay expands the “assay window” (from 5.1 to 6.7 seconds, inclusive, in Example 1; to 6.8 to 9.9 seconds, inclusive), and permits analysis of more data points.
When required, such as for stability of certain forms of carbonic anhydrase, additional compounds, such as salts, for example sodium chloride, can be added to the assay reagent. This embodiment of the assay reagent leads to an improved measure of carbonic anhydrase activity for forms of the enzyme which, in the absence of salt, may aggregate, precipitate, or otherwise change their form and alter the result in the assay measurement of CO2 absorption enhancement. The required concentration of salt is expected to be enzyme dependent, and the assay can be used to determine the optimal salt concentration required for optimal enzyme activity determination.
FIG. 3 presents the effect of salt concentration on the determination of carbonic anhydrase activity for a form of the enzyme that precipitates in the absence of salt.

[2] = cited from earlier work
carbonic anhydrase [3] = test: Carbonic anhydrase activity before and after zinc addition, bicine/cresol red CO2 hydration assay; type: biochemical, microbial origin; conditions: for fold improvement: activity with 3.5 mM zinc salt versus assay sample without zinc; for Activity (U/mL): zinc deficient enzyme sample incubated with 3.5 mM zinc salt overnight at room temperature
Experimental: A solution containing 25 mM bicine and 123 micromolar (0.05 g/L) cresol-red (pH 8.3) is prepared as the assay reagent. The assay substrate is prepared at room temperature by bubbling CO2 gas into either a 125 mL Erlenmeyer flask containing 100 mL deionized H2O (dH2O) or a 50 ml plastic conical tube containing 30 mL dH2O. Bubbling proceeds for at least 10 minutes to yield a saturated CO2(aq) solution ([CO2]˜30 mM (Kernohan, J. C. 1965. Biochim. Biophys. Acta 96: 304). Carbonic anhydrase test samples are diluted for the assay using the assay reagent as diluent. A set of assay samples, made by 5- or 6-×0.7-fold serial dilutions of the enzyme test sample, are loaded onto a 96-well microtiter plate. Eight replicate wells each containing 100 microliters of each dilution are plated. Corresponding blank wells are loaded on the same plate in alternating columns with the assay sample wells. Blank wells contain either assay reagent alone or a 5- or 6-×0.7-fold serial dilution set of a modified enzyme test sample, where the modification involves removing or inactivating the active enzyme of the test sample.
The plate is inserted into a temperature controlled plate reader equipped with a liquid dispenser unit with the inject head immersed in the aqueous CO2 substrate solution. Initial absorbance of a single well is collected, followed by injection of 100 microliters of aqueous CO2 substrate into a single well and kinetic absorbance reads are collected at fixed time intervals (e.g., every 0.5 seconds) for that well such that the rate of absorbance change can be measured and used to indicate the rate of CO2 hydration. After approximately 5-10 seconds the reaction is no longer monitored and the process is repeated for all subsequent wells. Data automatically collected on the instrument is saved or exported in Microsoft Excel file format and copy/pasted into the Microsoft Excel automated data processing template. The data collected for each well is automatically checked for a linear slope (change in absorbance with change in time) within a selected “assay window” indicating the enzyme in that well was saturated with substrate during the assay window. The assay window is a sub-set of data points collected between selected time points for each well. The assay window for all wells in this example are the same. The slope of the data collected from an individual well assay window is called the “assay slope.” Wells passing the “linearity test” are averaged for a particular dilution to determine the “average assay slope” for that particular dilution. Next, a T-test between blank and assay sample replicates determines the probability that the differences between the two data sets could arise by chance, improving data quality by ensuring that data from an excessively diluted assay sample are not included in calculations of enzyme activity. If at least 3 dilution sets pass the T-test (T-test value <0.05), and at least 4 out of 8 replicate wells for those dilutions pass the “linearity test,” the average assay slope (change in absorbance per unit time) for each accepted dilution is plotted versus the amount of enzyme present in that dilution. […]
Carbonic anhydrase activity improvement was evaluated by measuring enzyme activity before and after zinc addition according to the method of Example 1. […]

[4] = compared to other indicators with similar pKas, such as phenol red; cited from earlier work

SMILES	pKa [2]	fold improvement (carbonic anhydrase [3])	also measured
[Cl-].[Na+] [NaCl, sodium chloride]	–	–	effect of salt addition on activity of a carbonic anhydrase test sample (carbonic anhydrase [1]): improve the activity
NC(CO)(CO)CO [Tris]	8.0	–	–
CCC1(CC)C(=O)NC(=O)NC1=O [Veronal]	8.0	–	–
[Cl-].[Cl-].[Zn+2] [ZnCl2]	–	9 (ZnCl2) fold	Activity (U/mL) (carbonic anhydrase [3]): 5800 (ZnCl2) U/mL
O.O.O.O.O.O.O.O=S(=O)([O-])[O-].[Zn+2] [ZnSO4 × 7H2O, ZnSO4×7 H2O]	–	10 (ZnSO4 × 7H2O) fold	Activity (U/mL) (carbonic anhydrase [3]): 6400 (ZnSO4 × 7H2O) U/mL
Cc1cc(C2(c3ccc(O)c(C)c3)OS(=O)(=O)c3ccccc32)ccc1O [cresol red, o-Cresolsulfonephthalein]	8.32	–	water solubility [4]: relatively high water solubility
[Zn] [zinc]	–	around 10 fold	–
